Experimental data published in patent US12478607B2, “Compounds useful for inhibiting BFL1 and their use in therapy” (CHILDREN'S HOSPITAL MEDICAL CENTER, priority 2019, dated 2025).

Columns and labels:
[1] = system: wild-type activated primary murine T cells (splenocytes); assay: in vitro apoptosis assay, wild-type activated primary murine T cells; type: cell-based; conditions: Mus musculus, T-cell, 24 hours, trypan blue live/dead count
Text: (§1) We further tested the biological activity of the compounds using an in vitro apoptosis assay. Primary murine splenocyte cells were used as the model system. Single cell suspensions were generated from the spleens of either wild-type (WT) mice or mice having a genetic “knock-out” of the Bax and Bak genes, resulting in Bax/Bak deficient mice (Bax/Bak KO) which lack the core machinery of the intrinsic apoptotic pathway. Mice deficient in Bax/Bak are unable to undergo intrinsic apoptosis due to the lack of the pro-apoptotic Bax and Bak proteins in the pathway.
(§2) Purified cells were cultured on anti-CD3 coated (3 μg/mL, coated overnight, Biolegend, San Diego, CA) six-well plates in the presence of soluble anti-CD28 (2 μg/mL, Bio X Cell, West Lebanon, NH) and IL-2 (10 ng/mL, R&D Systems, Inc., Minneapolis, MN) in RPMI media (Life Technologies, Carlsbad, CA) for 24 hours at 37° C. Cells were then washed and cultured again in IL-2 (10 ng/mL) for 24 hours at 37° C. Cells were harvested and cultured for 24 hours on anti-CD3 coated 96-well plates at 500,000 cells per well with 2 μg/mL soluble anti-CD28, 10 ng/mL IL-2, 0.125 μg purified anti-mouse FasL (Biolegend, San Diego, CA), and varying concentrations of inhibitor compounds. Cells were then harvested and live and dead cells enumerated by trypan blue staining using the TC20 automated cell counter (Bio-Rad Laboratories, Des Plaines, IL).

BCL2A1 (A1) [2] = biological target: T1, BCL2A1 (A1) (Mus musculus (Mouse), UniProt Q07440); assay: single high-dose fluorescence polarization (FP) assay, BCL2A1-NOXA interaction; type: binding, murine; conditions: 100 μM compound, 3 μM A1, 375 nM labeled mNOXA
T1 sequence (Q07440 whole entry): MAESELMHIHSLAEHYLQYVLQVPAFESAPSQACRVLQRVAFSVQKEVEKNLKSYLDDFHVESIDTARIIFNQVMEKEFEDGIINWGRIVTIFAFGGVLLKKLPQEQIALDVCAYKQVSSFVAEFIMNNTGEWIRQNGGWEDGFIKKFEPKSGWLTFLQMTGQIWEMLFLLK
Procedure: (§3) These assays were carried out using fluorescently labeled NOXA peptide which binds within the BH3-binding groove. The FP assay measures the tumbling rate of the labeled NOXA peptide as a proxy for inhibition of BH3 binding using a competition-based approach. When NOXA is bound to BCL2A1, its rate of tumbling is low (and FP is high), whereas an effective inhibitor compound will displace NOXA, causing a fast rate of tumbling (and low FP value). The initial single high dose assay was performed with each compound using […] with BCL2A1 and FITC-NOXA, to observe the relative inhibition of the BCL2A1-NOXA interaction. Small molecules that deviated by three or more standard deviations from the control mean towards inhibition of binding were selected for further analysis. These compounds and any that were three standard deviations or more above the thermal shift controls in the DSF assays were tested in an FP dose-response experiment. […] The average thermal shift (Tm shift) in the DSF assay, along with the percentage of bound Noxa peptide from the single high dose FP assay are given below in Table 2 for each of these compounds. The first two compounds in Table 2 are reference compounds.
(§4) Compounds were additionally tested for specificity of binding by displacement of FITC-labeled mouse NOXA (mNoxa; Peptide 2.0) peptide via fluorescence polarization assay (FP). FP assays were performed in two steps: single-point high-concentration compounds and dose response of fluorescence polarization hits. A1 was added at 3 μM to 100 μM of each compound in 20 mM Tris pH 7, 500 mM NaCl, 0.005% Tween-20 buffer. After addition of 375 nM labeled mNOXA, 96-well plates were incubated overnight at 20° C. in the dark to achieve equilibrium before fluorescence polarization was measured with a Biotek Synergy H2. Autofluorescent compounds and fluorescent quenching compounds were corrected via ratiometric correction as described by Shapiro et al., 2009.

BCL2A1 (purified A1) = BCL2A1 (purified A1) (Mus musculus (Mouse), UniProt Q07440); assay: differential scanning fluorimetry (DSF) thermal shift assay; type: binding, murine; conditions: 100 μM compound, 4.4 μM A1, triplicate; for ΔTm at 100 µM: read-out: Average Tm Shift
BCL2A1 (purified A1), sequence (Q07440 whole entry): as above
Text: Thermal shift assays and fluorescence polarization competition assays were used to identify compounds that bind to BCL2A1/BFL1. Compounds were first tested for binding to BCL2A1 using differential scanning fluorimetry (DSF) thermal shift assays. DSF measures the midpoint temperature (Tm) for thermal denaturation of proteins; typically ligand binding stabilizes the protein fold, resulting in an increased Tm. During DSF experiments, all compounds that contributed to an increase in Tm that corresponded to at least three standard deviations from the mean were included in further assays.
100 μM of each compound was applied to purified A1 at 4.4 μM in triplicate. Sypro Orange dye was added at a final dilution of 1:1000 to protein- and compound-containing wells. An Applied Biosystems StepOnePlus was used to perform Differential Scanning Fluorimetry (DSF) by elevating the temperature from 20° C. to 99° C. and measuring fluorescence at every half degree C. Melting temperature was recorded as the maximum of the first derivative, indicating half of the protein population was unfolded.

[3] = system: T cells from Bax/Bak-deficient mice (Bax/Bak KO); assay: in vitro apoptosis assay, Bax/Bak-deficient murine T cells; type: cell-based, mouse
Text: as §1, §2

BCL2A1 (A1) [4] = biological target: T1, BCL2A1 (A1); assay: dose-response fluorescence polarization (FP) assay, displacement of FITC-labeled mNOXA peptide; type: binding, murine; conditions: 3 μM A1, 375 nM FITC-labeled mNOXA, overnight 20° C., triplicate
Procedure: as §3, §4
Dose response curves were measured by adding 3 μM A1 to a serial two-fold dilution series of each compound ranging from 400 μM to 781 nM in 20 mM Tris pH 7, 500 mM NaCl, 0.005% Tween-20 buffer. Some compounds were further tested to assess the accuracy of these two-fold dilutions with serial 1.33-fold dilutions. A1, compounds, buffer and lastly, 375 nM FITC-labeled mNOXA were added to each well and incubated in the dark at 20° C. overnight to achieve equilibrium, followed by measurement of polarization. All dose responses were performed in triplicate.

| Compound | % Bound Noxa (from high-dose FP) (BCL2A1 (A1) [2]) [%] | ΔTm at 100 µM (BCL2A1 (purified A1)) [°C] | IC50 (BCL2A1 (A1) [4]) [µM] | Average Tm Shift (BCL2A1 (purified A1)) [°C] | EC50 [1] [µM] | EC50 fold higher in Bax/Bak-deficient cells than in wild-type cells ([3]; Bax/Bak-deficient versus wild-type T cells) | EC50 ([3]; Mus musculus, T-cell, Bax/Bak-deficient T cells, 24 hours, trypan blue live/dead count, read-out: EC50 of cell death) [µM] |
| --- | --- | --- | --- | --- | --- | --- | --- |
| CCN(CC)CC(O)CNc1ccc(C)c2sc3ccccc3c(=O)c12 (stereo not shown) [Compound 1.001] | 41.48 | 0.49 | 49.1 | – | ~3 | about 10 fold | 20 to 30 |
| CCN(CC)CCNc1ccc(C)c2sc3ccccc3c(=O)c12 [Compound 1.002] | 4.5 | 38.8 | 70.1 | – | – | – | – |
| CCN(CCNc1ccc(C)c2sc3ccccc3c(=O)c12)CC(C)(C)O [Compound 1.003] | 51.13 | -1.43 | 103 | – | – | – | – |
| Cc1ccc(NCCNCC(O)CO)c2c(=O)c3ccccc3sc12 (stereo not shown) [Compound 1.004] | – | -0.6 | 300 | – | – | – | – |

Now from value to compound, other results behind:

| % Bound Noxa (from high-dose FP) (BCL2A1 (A1) [2]) [%] | ΔTm at 100 µM (BCL2A1 (purified A1)) [°C] | IC50 (BCL2A1 (A1) [4]) [µM] | Average Tm Shift (BCL2A1 (purified A1)) [°C] | Compound | EC50 [1] [µM] | EC50 fold higher in Bax/Bak-deficient cells than in wild-type cells ([3]; Bax/Bak-deficient versus wild-type T cells) | EC50 ([3]; Mus musculus, T-cell, Bax/Bak-deficient T cells, 24 hours, trypan blue live/dead count, read-out: EC50 of cell death) [µM] |
| --- | --- | --- | --- | --- | --- | --- | --- |
| – | -0.85 | 333 | – | Cc1ccc(NCCNCC(C)(C)O)c2c(=O)c3ccccc3sc12 [Compound 1.005] | – | – | – |
| 70.39 | 19.2 | 48.5 | – | O=C(COc1c(Cl)cc(Cl)c2ccccc12)NC1c2ccccc2Oc2ccccc21 [Compound 1.006] | – | – | – |
| – | – | – | 1.92 | Cc1cc(N=Nc2ccc(N=Nc3c(O)c(S(=O)(=O)O)cc4cc(S(=O)(=O)O)ccc34)cc2C)ccc1N=Nc1ccc2cc(S(=O)(=O)O)cc(S(=O)(=O)O)c2c1 [REF 1, reference compound] | – | – | – |
| 1.2 | – | – | −30.75 | Cc1ccc(NC(=O)c2cc3ccccc3c(N=Nc3cc(S(=O)(=O)O)ccc3O)c2O)c(C)c1 [REF 2, reference compound] | – | – | – |
